Values joined by “and” are separate entries in the source; they are usually repeats but may differ in a detail not shown here. Equal entries are not always repeated.
Experiments:
[1] = target: T1, DNPI/VGLUT2 (Rattus norvegicus, UniProt Q9JI12); assay: 3H-L-glutamate uptake by membranes from PC12 cells expressing DNPI/VGLUT2; assay type: biochemical
T1 construct: To reconstruct the full open reading frame, the missing segment was amplified from rat brain cDNA by PCR; expressed in transfected cells; light membranes prepared from them
T1 sequence (Q9JI12 1-582): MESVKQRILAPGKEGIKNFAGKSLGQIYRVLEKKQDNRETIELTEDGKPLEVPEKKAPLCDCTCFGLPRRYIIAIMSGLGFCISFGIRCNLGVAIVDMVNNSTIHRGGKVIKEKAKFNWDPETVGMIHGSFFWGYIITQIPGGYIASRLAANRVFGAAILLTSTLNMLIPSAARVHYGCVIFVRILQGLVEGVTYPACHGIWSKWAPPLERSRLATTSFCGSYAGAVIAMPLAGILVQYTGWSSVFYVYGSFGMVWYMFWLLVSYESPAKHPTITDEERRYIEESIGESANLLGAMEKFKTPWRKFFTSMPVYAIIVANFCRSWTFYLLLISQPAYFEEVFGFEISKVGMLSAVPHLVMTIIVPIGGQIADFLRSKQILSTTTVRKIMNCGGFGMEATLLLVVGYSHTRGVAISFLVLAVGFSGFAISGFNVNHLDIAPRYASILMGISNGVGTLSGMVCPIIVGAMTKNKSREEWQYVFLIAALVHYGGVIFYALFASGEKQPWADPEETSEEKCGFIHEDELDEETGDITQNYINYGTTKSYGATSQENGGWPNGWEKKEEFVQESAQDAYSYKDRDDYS
Experimental: PC12 cells were grown in Dulbecco's modified Eagle's medium containing 10% equine serum, 5% calf serum and transfected by electroporation with the rat DNPI/VGLUT2 cDNA subcloned in the pcDNA3 vector containing an […] (Krantz et al. (2000) J. Cell Biol. 149). Stable transformants were selected for resistance to the neomycin analog G418 (500 μg/ml) and screened by immunofluorescence with the DNPI antibody, resulting in the identification of two independent clones with more than 80% of the cells expressing DNPI.
For membrane preparation, untransfected and DNPI-expressing PC12 cells were grown on 15 cm plates, washed with calcium- and magnesium-free PBS, collected in 0.32 M sucrose/10 mM HEPES-KOH, pH 7.4 (SH buffer) containing protease inhibitors (2 μg/ml leupeptin, 1 μg/ml pepstatin, 1 μg/ml E64, 0.2 mM diisopropylfluorphosphate, 2 μg/ml aprotinin, and 1.25 mM MgEGTA), homogenized using a ball bearing device and the homogenate sedimented at 1000 g for 5 min to remove nuclei and debris. The supernatant was then sedimented at 27,000 g for 35 min to remove heavier membranes. The remaining light membranes including small synaptic-like microvesicles were then sedimented at 210,000 g for 1 hour. The pellet was resuspended in SH buffer with protease inhibitors at ˜10 mg protein/ml.
To initiate the transport reaction, 20 μl membranes (˜200 μg protein) were added to 180 μl SH buffer containing 4 mM KCl, 4 mM MgSO4, […], and 100 μM ^3H-L-glutamate, with other additions noted in the text and figure legends. The reaction mixture was incubated at 29° C. for varying intervals, uptake was terminated by rapid filtration through Supor-200 membranes (Gelman) and the filters were washed rapidly four times with 1.5 ml cold 0.155 M potassium tartrate/10 mm HEPES-KOH, pH 7.4 before measuring the bound radioactivity by scintillation counting in 3 ml Cytoscint (ICN). Uptake specifically mediated by DNPI/VGLUT2 was determined by subtracting the background uptake of untransfected cell membranes from the uptake by transfected cell membranes. To examine the chloride dependence of transport, varying proportions of 0.14 M K gluconate and 0.14 M KCl were mixed in the standard reaction buffer (without sucrose) to vary the chloride concentration and maintain constant osmolarity. The ionophores nigericin and valinomycin used in FIG. 13E were prepared as 200× stock solutions in ethanol. The final ethanol concentration in the reaction mixture was 1%.

[2] = tested on: synaptic vesicles; details: read-out: Km of vesicular glutamate transport; cited from earlier work
[3] = tested on: untransfected PC12 cell membranes; assay: background 3H-glutamate uptake by membranes from untransfected PC12 cells; assay type: biochemical, rat; details: uptake at 5 min
Experimental: To initiate the transport reaction, we added 10 μl of membranes to 190 μl of SH buffer containing 4 mM KCl, 4 mM MgSO4, 4 mM ATP, and 50 μM 3H-glutamate, with other additions noted in the text and figure legends. […] Background uptake was determined using membranes prepared from untransfected cells that were incubated for the same amount of time at the same temperature. Transport measurements were performed in duplicate with at least two different preparations of membranes. The Km was calculated by averaging the results of two separate determinations.

[4] = tested on: untransfected PC12 cell membranes; assay: acridine orange fluorescence quenching of untransfected cell membranes; assay type: biochemical, rat; details: 10 mM glutamate
Experimental: Native synaptic vesicles acidify during glutamate uptake (Maycox et al. (1988) J. Biol. Chem., 263: 15423). Glutamate presumably serves as a counterion for protons and dissipates ΔΨ, enabling the vacuolar H+-ATPase to generate a larger ΔpH, but cotransport of H+ with glutamate remains an alternative possibility. To determine whether acidification also accompanies glutamate transport by BNPI, we used the quenching of acridine orange fluorescence to measure vesicle pH. Membranes (200 μg of protein) were diluted into 2 ml of 0.3 M sucrose and 10 mM tris-Mops (pH 7.4) containing 4 mM MgSO4 and 5 μM acridine orange and incubated at 37° C. with continuous stirring. Fluorescence was monitored with a Hitachi F4500 spectrofluorimeter at an excitation wavelength of 492 nm and emission of 530 nm. Separate measurements were made with at least three different membrane preparations for wild-type and transfected cells; representative tracings are shown in FIG. 5.

Compound	specific 3H-L-glutamate uptake by DNPI at high chloride ([1]; 140 mM chloride)	chloride concentration for maximal 3H-L-glutamate uptake by DNPI ([1]; uptake at 5 minutes)	inhibition of DNPI-mediated 3H-L-glutamate uptake ([1]; 10 mM, uptake at 5 minutes)	Km ([1]; initial rate at 1 minute, 0.03-10 mM L-glutamate, Lineweaver-Burke)	Km [2] [mM]	effect on background glutamate uptake by untransfected cell membranes [3]	effect on acidification produced by chloride in nontransfected cell membranes [4]
Cl [chloride]	little or no specific uptake is detectable	2 to 10 mM and ~2 mM					
N[C@@H](CCC(=O)O)C(=O)O [L-Glutamate]			markedly inhibits	4.7 mM and ~5 mM	~1	had little effect	had no effect
